Entries after “also recorded” stand apart in the source; their conditions may differ.
Legend:
IL-17F = test: Phase 2 study: plasma Th17 related cytokines (MSD U-Plex), IL-17F; format: in vivo, human; conditions: BIT225 cohort vs placebo (data not shown)
Procedure: (§1) A Phase 2, multi-centre, randomized, placebo-controlled, double-blind study of BIT225 in combination with ART (Atripla—efavirenz/emtricitabine/tenofovir DF) was undertaken in patients with HIV-1 infection that were treatment-naive. Patients were randomized into two groups on a 2:1 basis, with one group receiving BIT225 (100 mg QD; 6 patients: placebo; 3 patients), and one group receiving BIT225 (200 mg QD, 18 patients: placebo; 9 patients), with a total of 36 patients enrolled in the trial. The 100 mg BIT225 group was primarily included for detailed PK analyses due to limitations on the quantity of blood that could be drawn at time points coinciding with analyses of viral load decay, which were limited to the 200 mg cohort. All subjects received the standard dose of ART in addition to 12 weeks BIT225 or placebo study treatment. […]
(§2) Th17 cells regulate other immune cells, specifically neutrophils and macrophages, by secreting a variety of cytokines in response to pathogens. Plasma samples were analysed to determine the level of the Th17 related cytokines (IL-21, IFN-γ, IL-1p, IL-6, IL-10, IL-17A, IL-17E/IL-25, IL-17F, IL-22, and TNF-α) during the 12 week treatment period using electro-chemiluminescence MSD U-Plex Biomarker Group Th17 (Human Combo 2) Human Multiplex Assay (MesoScaleDiscovery, MD, USA).

TNF-α = test: Phase 2 study: plasma Th17 related cytokines (MSD U-Plex), TNF-α; format: in vivo, human; conditions: BIT225 cohort vs placebo (data not shown)
Procedure: as §1, §2

IL-1 B = test: Phase 2 study: plasma Th17 related cytokines (MSD U-Plex), IL-1 B; format: in vivo, human; conditions: BIT225 cohort vs placebo (data not shown)
Procedure: as §1, §2

[1] = Phase 2 study: safety and tolerability; format: in vivo, human
Procedure: (§3) A Phase 2, multi-centre, randomized, placebo-controlled, double-blind study of BIT225 in combination with ART (Atripla—efavirenz/emtricitabine/tenofovir DF) was undertaken in patients with HIV-1 infection that were treatment-naive. Patients were randomized into two groups on a 2:1 basis, with one group receiving BIT225 (100 mg QD; 6 patients: placebo; 3 patients), and one group receiving BIT225 (200 mg QD, 18 patients: placebo; 9 patients), with a total of 36 patients enrolled in the trial. The 100 mg BIT225 group was primarily included for detailed PK analyses due to limitations on the quantity of blood that could be drawn at time points coinciding with analyses of viral load decay, which were limited to the 200 mg cohort. All subjects received the standard dose of ART in addition to 12 weeks BIT225 or placebo study treatment. At the conclusion of the trial, patients remained on ART as per standard treatment protocols. HIV-1-infected subjects, males and females, aged 18 to 65 years inclusive, who were naive to ART were recruited. Individuals had HIV-1 RNA>5,000 copies/mL and CD4^+ T cell count>100 cells/mm^3.
There were two treatment cohorts. The first cohort received 100 mg capsule of BIT225 or placebo QD with ART for 12 weeks. Cohort 2 were given two 100 mg capsules BIT225 (200 mg BIT225) or placebo QD with ART. ART was 1 fixed dose combination tablet of Atripla.
The safety of the experimental treatments was assessed by monitoring adverse events, vital signs, ECG parameters, clinical laboratory tests (haematology, clinical chemistry, coagulation and urinalysis) and physical examinations.

[2] = Phase 2 study: pharmacokinetics (plasma, LC/MS/MS); format: in vivo, human
Procedure: as §3
There were two treatment cohorts. The first cohort received 100 mg capsule of BIT225 or placebo QD with ART for 12 weeks. Cohort 2 were given two 100 mg capsules BIT225 (200 mg BIT225) or placebo QD with ART. ART was 1 fixed dose combination tablet of Atripla. […]

[3] = tested on: CD28 on CD4^+ T cells infected with HIV-1 NL4-3; test: Plasma membrane CD28 expression on HIV-1 NL4-3 infected CD4+ T cells, flow cytometry; format: cell-based, human; conditions: 3 μM BIT225, WT HIV-1 NL4-3 infected cells, up to 72 h; dependent on Vpu expression
Procedure: (§4) Method of virus stock generation is as described by Bobardt et al., PNAS, 2008; 105(14):5525-5530. Briefly, 293T cells were transfected with proviral plasmid (9 μg) and vesicular stomatitis virus G (VSV-G) envelope plasmid (1 μg). At day 2, VSV-G pseudotyped viruses (5 μg of p24) were harvested and used to acutely infect Jurkat cells (2×10^6 cells). Two days after infection, viruses were harvested, and p24 content was measured by ELISA (PerkinElmer). Viral infections were conducted in triplicate with 10 or 100 ng of p24 derived from transfected 293T cells. The following proviral constructs were used: wild-type HIV-1 pNL4.3 […] tropic[WT], pNL4.3 ANef, pNL4.3 AVpu, pNL4.3 ANefAVpu, and HIV-1 pBaL-1 CCR5(R5) tropic[WT].
(§5) CD4^+ T cell isolation as previously described by Geijtenbeek et al., Cell, 2000, 100:587-597. Human PBMC were purified from fresh blood by banding on Ficoll-Hypaque (30 min, 800 g, 25° C.; Amersham Biosciences). Primary human CD4^+ T cells were purified from PBMC by positive selection with anti-CD4 Dynabeads and subsequent release using Detachabead (Dynal Biotech). […]
(§6) Cells were treated with 3 μM BIT225 or DMSO control, and expression of CD28, CCR7, CD80 and CD86 measured by flow cytometry at 24, 48 and 72 hour time points. […]

[4] = tested on: CCR7 on CD4^+ T cells infected with HIV-1 NL4-3; test: Plasma membrane CCR7 expression on HIV-1 NL4-3 infected CD4+ T cells, flow cytometry; format: cell-based, human
Procedure: as §4, §5, §6

[5] = tested on: CD80 on MDM infected with HIV-1 NL4-3; test: Plasma membrane CD80 expression on HIV-1 NL4-3 infected MDM, flow cytometry; format: cell-based, human
Procedure: as §4
(§7) Blood-derived CD4^+ T lymphocytes and MDM were isolated as described in Saphire et al., J Virol 2001, 75:9187-9200. CD4^+ T cells and monocytes were extracted from the blood of three donors that were CCR5-Delta32 negative. […]
as §6

[6] = tested on: CD86 on MDM infected with HIV-1 NL4-3; test: Plasma membrane CD86 expression on HIV-1 NL4-3 infected MDM, flow cytometry; format: cell-based, human
Procedure: as §4, §7, §6

[7] = 3 μM BIT225, ΔNefΔVpu HIV-1 NL4-3 double mutant

In the case of `Cn1cc(-c2cccc3cc(C(=O)NC(=N)N)ccc23)cn1` [BIT225, N-carbamimidoyl-5-(1-methylpyrazol-4-yl)naphthalene-2-carboxamide], the “IL-17F production versus placebo” value (IL-17F) is reported as “no difference between cohorts”, the TNF-α versus placebo (TNF-α) is reported as “no statistical differences” and the “IL-1 B production versus placebo” value (IL-1 B) is reported as “no statistical differences”. For the same compound, the Tolerability / safety ([1]; 100 and 200 mg QD cohorts with ART, 12 weeks) was “safe and well tolerated”, the “QTcB in one discontinued subject (mild QTcB prolongation, Day 17), considered not related to BIT225 or Atripla” value ([1]; BIT225 100 mg cohort) was over 480 ms and the “Subjects who discontinued the study early due to AEs” value ([1]; BIT225 100 mg cohort) was “Two”. The “Serious AEs or deaths” value ([1]; all cohorts) was “no serious AEs (SAEs) or deaths”, the “Effect of BIT225 on the PK characteristics of Atripla (ART)” value ([2]; co-administration (results not shown)) was “did not significantly affect; also recorded: no significant impact” and the Plasma exposures ([2]; intensive PK sampling, 100 mg cohort) was “within the expected timeframes and concentration ranges”. For the same compound, the “CD28 expression on CD4+ T cells” value [3] was “partial restoration”, the “CCR7 expression on CD4+ T cells” value ([4]; 3 μM BIT225, WT HIV-1 NL4-3-infected cells, dependent on Vpu expression) was “partial restoration” and the “CCR7 downregulation by Nef expression alone” value ([4]; 3 μM BIT225, ΔVpu virus) was “not affected”. The “Plasma membrane CD80 expression on MDM” value ([5]; 3 μM BIT225, WT or ΔNef virus infected cells (express Vpu)) was “partial restoration”, the “Plasma membrane CD80 expression on MDM” value [5, 7] was “no observable effect” and the “Plasma membrane CD86 expression on MDM” value ([6]; 3 μM BIT225, WT or ΔNef virus infected cells) was “partial restoration”. The “Plasma membrane CD86 expression on MDM” value [6, 7] was “no observable effect”.

From US20220409587A1, “METHODS OF TREATING HIV-1 INFECTION” (BIOTRON LIMITED, priority 2019, published 2022)
